From doi:10.1101/2020.07.01.182642v1 (biorxiv, 2020)
Each block holds one molecule with its values, some of them ahead of it.

Assays:
Conditions in all cases: binder
CDK16 = CDK16 (Homo sapiens, UniProt Q00536)
CSNK2A1 = CSNK2A1 (Homo sapiens, UniProt P68400)
PLK4 = target: T1, PLK4 (Homo sapiens, UniProt O00444)
T1 sequence (O00444 1-970): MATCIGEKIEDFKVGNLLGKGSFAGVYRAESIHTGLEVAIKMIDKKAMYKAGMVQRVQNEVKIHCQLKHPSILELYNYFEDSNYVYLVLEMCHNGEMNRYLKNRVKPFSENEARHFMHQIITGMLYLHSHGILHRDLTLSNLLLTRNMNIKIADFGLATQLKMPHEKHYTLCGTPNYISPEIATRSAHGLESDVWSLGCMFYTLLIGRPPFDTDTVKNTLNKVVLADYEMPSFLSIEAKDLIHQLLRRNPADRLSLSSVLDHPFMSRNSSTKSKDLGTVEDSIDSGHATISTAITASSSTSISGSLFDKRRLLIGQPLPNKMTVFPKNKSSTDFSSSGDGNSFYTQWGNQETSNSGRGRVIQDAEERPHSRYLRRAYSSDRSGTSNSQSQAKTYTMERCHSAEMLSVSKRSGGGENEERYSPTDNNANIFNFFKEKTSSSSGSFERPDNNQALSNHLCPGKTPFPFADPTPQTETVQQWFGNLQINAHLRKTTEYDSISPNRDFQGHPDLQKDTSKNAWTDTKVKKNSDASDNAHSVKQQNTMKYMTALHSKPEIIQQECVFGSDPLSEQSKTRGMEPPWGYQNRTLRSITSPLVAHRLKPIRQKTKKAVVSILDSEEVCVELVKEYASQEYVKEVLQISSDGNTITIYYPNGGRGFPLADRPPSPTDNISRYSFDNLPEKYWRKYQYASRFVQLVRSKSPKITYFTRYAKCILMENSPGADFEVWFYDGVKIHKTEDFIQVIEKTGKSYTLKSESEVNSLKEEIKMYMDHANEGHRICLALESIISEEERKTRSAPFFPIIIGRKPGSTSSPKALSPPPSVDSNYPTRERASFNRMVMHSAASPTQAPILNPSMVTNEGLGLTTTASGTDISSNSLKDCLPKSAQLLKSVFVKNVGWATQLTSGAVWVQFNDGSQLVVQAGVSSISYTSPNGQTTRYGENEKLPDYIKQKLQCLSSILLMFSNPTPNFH

CLK2 = CLK2 (Homo sapiens, UniProt P49760)
STK16 = STK16 (Homo sapiens, UniProt O75716)
SRPK3 = SRPK3 (Homo sapiens, UniProt Q9UPE1)
RPS6KA6 = RPS6KA6 (Homo sapiens, UniProt Q9UK32)
RPS6KA2 = RPS6KA2 (Homo sapiens, UniProt Q15349)
PAK4 = PAK4 (Homo sapiens, UniProt O96013)
MAP2K2 = MAP2K2 (Homo sapiens, UniProt P36507)
TNIK = TNIK (Homo sapiens, UniProt Q9UKE5)
PRKAA1 = PRKAA1 (Homo sapiens, UniProt Q13131)
STK33 = STK33 (Homo sapiens, UniProt Q9BYT3)
Chain of STK33 (Q9BYT3 whole entry): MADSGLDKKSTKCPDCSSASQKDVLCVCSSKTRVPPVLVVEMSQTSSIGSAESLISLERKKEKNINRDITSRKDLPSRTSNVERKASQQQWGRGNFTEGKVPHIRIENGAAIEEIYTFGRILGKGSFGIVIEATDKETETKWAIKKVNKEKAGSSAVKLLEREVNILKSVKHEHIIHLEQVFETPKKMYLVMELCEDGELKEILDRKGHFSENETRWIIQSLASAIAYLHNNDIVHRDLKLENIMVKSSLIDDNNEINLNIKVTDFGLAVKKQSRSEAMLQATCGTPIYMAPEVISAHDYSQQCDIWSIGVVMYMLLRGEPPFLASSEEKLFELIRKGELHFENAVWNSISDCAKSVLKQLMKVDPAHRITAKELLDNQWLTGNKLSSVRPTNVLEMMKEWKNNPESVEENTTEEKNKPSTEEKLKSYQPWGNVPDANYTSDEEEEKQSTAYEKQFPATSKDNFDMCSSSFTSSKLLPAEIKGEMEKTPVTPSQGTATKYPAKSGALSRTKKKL

Chain of PAK4 (O96013 whole entry): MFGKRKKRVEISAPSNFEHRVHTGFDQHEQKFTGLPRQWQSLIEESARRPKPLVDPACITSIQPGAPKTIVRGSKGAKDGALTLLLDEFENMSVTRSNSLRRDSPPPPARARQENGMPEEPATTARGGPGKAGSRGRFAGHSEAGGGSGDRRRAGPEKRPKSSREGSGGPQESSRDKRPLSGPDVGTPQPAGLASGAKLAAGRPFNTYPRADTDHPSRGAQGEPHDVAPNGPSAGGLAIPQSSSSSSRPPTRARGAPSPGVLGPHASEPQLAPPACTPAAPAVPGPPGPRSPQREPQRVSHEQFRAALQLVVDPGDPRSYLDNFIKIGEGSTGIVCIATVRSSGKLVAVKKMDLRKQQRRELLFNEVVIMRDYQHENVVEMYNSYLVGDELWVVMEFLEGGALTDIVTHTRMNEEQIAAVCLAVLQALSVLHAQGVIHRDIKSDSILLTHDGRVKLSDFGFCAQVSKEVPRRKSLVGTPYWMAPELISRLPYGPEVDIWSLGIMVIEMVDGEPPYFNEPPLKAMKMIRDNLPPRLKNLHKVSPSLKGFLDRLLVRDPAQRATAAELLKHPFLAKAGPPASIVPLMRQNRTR
Chain of CSNK2A1 (P68400 whole entry): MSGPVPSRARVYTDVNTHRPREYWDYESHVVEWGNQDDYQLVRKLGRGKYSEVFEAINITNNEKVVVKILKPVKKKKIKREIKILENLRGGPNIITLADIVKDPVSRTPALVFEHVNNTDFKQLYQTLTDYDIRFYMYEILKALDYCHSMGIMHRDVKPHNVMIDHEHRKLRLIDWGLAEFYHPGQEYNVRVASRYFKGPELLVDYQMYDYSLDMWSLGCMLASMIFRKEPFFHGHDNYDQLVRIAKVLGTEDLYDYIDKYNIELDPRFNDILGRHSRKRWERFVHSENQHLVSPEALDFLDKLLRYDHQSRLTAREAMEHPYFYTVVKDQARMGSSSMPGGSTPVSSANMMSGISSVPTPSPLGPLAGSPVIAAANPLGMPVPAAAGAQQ
Chain of TNIK (Q9UKE5 whole entry): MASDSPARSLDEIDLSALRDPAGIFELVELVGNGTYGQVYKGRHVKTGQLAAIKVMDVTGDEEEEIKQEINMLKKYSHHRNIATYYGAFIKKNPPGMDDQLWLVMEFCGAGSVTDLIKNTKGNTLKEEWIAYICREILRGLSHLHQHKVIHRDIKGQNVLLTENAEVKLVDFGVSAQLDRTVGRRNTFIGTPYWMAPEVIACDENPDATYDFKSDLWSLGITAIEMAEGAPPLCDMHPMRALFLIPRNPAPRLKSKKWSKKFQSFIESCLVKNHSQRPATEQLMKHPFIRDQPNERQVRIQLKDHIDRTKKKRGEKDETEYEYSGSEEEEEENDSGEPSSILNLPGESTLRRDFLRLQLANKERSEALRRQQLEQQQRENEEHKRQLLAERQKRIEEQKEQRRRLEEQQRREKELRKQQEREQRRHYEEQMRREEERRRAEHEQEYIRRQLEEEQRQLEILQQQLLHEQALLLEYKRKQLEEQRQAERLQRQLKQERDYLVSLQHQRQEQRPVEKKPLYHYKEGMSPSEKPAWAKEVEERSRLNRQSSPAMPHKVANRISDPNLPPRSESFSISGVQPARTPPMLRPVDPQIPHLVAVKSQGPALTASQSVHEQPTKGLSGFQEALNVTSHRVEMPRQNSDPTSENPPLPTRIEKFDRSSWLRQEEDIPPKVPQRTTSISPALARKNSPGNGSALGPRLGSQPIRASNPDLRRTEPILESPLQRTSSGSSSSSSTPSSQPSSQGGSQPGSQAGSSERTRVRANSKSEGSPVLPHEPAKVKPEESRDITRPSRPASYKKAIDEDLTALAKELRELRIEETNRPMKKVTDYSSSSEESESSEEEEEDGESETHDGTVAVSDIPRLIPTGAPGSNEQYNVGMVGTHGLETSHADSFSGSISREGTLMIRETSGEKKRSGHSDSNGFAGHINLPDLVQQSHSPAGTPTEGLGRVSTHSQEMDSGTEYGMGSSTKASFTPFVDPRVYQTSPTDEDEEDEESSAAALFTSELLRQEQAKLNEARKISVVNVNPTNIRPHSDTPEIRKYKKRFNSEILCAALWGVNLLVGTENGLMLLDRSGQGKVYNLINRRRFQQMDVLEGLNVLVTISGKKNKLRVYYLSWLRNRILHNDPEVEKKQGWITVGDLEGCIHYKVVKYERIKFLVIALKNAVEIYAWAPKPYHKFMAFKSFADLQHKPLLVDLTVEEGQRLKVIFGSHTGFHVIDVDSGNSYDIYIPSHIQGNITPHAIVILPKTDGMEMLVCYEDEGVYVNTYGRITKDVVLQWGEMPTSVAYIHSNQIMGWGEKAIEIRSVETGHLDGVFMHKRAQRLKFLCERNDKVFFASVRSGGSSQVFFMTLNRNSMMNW
Chain of CLK2 (P49760 whole entry): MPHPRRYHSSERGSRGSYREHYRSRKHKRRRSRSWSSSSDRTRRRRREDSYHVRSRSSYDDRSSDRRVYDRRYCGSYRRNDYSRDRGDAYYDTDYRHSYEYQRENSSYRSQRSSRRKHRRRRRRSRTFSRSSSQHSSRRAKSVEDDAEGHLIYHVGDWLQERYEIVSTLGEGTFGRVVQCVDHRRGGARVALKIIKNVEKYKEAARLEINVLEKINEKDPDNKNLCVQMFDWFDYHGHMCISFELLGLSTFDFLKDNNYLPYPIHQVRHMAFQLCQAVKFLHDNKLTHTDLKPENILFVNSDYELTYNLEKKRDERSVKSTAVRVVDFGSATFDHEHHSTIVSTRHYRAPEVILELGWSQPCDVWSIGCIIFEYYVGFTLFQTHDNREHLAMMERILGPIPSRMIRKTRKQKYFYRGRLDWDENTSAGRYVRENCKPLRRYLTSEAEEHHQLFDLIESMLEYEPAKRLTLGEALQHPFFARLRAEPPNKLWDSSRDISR
Chain of MAP2K2 (P36507 whole entry): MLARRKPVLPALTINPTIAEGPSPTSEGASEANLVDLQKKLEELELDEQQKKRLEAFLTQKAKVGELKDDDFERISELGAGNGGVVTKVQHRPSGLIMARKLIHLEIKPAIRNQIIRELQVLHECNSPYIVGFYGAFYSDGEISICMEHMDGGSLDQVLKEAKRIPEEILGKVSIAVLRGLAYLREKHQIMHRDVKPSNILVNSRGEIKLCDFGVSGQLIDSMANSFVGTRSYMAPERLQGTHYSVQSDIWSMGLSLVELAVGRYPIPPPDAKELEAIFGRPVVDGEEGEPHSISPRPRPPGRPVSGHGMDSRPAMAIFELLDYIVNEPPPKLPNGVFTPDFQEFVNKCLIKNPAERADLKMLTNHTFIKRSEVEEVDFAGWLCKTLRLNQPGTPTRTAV
Chain of SRPK3 (Q9UPE1 whole entry): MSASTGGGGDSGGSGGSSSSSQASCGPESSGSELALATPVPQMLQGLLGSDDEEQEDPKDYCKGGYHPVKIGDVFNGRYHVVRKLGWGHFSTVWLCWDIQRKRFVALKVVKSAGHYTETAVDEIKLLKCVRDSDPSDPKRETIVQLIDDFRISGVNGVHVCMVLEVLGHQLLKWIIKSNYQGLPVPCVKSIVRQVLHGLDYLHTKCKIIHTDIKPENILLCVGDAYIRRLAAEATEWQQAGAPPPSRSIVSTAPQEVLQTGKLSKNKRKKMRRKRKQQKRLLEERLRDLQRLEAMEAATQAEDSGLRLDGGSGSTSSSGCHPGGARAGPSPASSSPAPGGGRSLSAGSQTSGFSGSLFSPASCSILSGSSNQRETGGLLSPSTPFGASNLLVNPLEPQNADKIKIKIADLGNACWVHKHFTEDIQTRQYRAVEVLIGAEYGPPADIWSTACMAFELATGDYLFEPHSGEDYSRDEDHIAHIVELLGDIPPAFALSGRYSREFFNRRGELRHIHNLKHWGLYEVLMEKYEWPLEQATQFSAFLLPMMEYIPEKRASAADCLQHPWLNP
Chain of PRKAA1 (Q13131 whole entry): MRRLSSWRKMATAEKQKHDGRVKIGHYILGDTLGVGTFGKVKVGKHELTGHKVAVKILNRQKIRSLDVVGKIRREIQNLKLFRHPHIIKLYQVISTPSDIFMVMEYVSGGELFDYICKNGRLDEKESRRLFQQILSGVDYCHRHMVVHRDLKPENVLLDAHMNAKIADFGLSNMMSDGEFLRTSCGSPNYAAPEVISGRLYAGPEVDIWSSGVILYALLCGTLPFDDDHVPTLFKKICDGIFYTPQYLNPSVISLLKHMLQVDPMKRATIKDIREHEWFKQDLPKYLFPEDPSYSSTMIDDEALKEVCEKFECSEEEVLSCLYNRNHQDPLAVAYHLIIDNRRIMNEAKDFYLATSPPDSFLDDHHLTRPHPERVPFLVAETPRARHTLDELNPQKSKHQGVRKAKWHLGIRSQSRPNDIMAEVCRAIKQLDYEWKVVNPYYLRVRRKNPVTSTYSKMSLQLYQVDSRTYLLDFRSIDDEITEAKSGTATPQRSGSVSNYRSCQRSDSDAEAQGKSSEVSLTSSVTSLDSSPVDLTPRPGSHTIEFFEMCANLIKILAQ

- ΔTm inhibitor 2 (CDK16): -0.4 °C
- ΔTm inhibitor 2 (CSNK2A1): 2.6 °C
- ΔTm inhibitor 2 (PLK4): 0.2 °C
- ΔTm inhibitor 2 (CLK2): 5.0 °C
- ΔTm inhibitor 2 (STK16): 0.2 °C
- ΔTm inhibitor 2 (SRPK3): 0.0 °C
- ΔTm inhibitor 2 (RPS6KA6): 0.4 °C
- ΔTm inhibitor 2 (RPS6KA2): 0.4 °C
- ΔTm inhibitor 2 (PAK4): 1.7 °C
- ΔTm inhibitor 2 (MAP2K2): 0.5 °C
- ΔTm inhibitor 2 (TNIK): 0.1 °C
- ΔTm inhibitor 2 (PRKAA1): -0.3 °C
- ΔTm 2 (STK33): 0.6 °C
Compound: CCN1/C(=C/C(C)=O)Sc2ccc(OC)cc21 [compound 2, TG003]

- ΔTm inhibitor 4 (CDK16): 1.2 °C
- ΔTm inhibitor 4 (CSNK2A1): 0.2 °C
- ΔTm inhibitor 4 (PLK4): 0.4 °C
- ΔTm inhibitor 4 (CLK2): 7.2 °C
- ΔTm inhibitor 4 (STK16): 3.5 °C
- ΔTm inhibitor 4 (SRPK3): 0.2 °C
- ΔTm inhibitor 4 (RPS6KA6): 2.1 °C
- ΔTm inhibitor 4 (RPS6KA2): 1.0 °C
- ΔTm inhibitor 4 (PAK4): 1.5 °C
- ΔTm inhibitor 4 (MAP2K2): 0.1 °C
- ΔTm inhibitor 4 (TNIK): 1.2 °C
- ΔTm inhibitor 4 (PRKAA1): 0.5 °C
- ΔTm 4 (STK33): 2.4 °C
Compound: Nc1nccc(-c2ccc3noc(-c4ccc(Cl)cc4)c3c2)n1 [compound 4, K00972]

- ΔTm inhibitor 1 (CDK16): 0.5 °C
- ΔTm inhibitor 1 (CSNK2A1): 3.3 °C
- ΔTm inhibitor 1 (PLK4): 2.6 °C
- ΔTm inhibitor 1 (CLK2): 5.5 °C
- ΔTm inhibitor 1 (STK16): 2.3 °C
- ΔTm inhibitor 1 (SRPK3): 0.4 °C
- ΔTm inhibitor 1 (RPS6KA6): 4.2 °C
- ΔTm inhibitor 1 (RPS6KA2): 2.7 °C
- ΔTm inhibitor 1 (PAK4): 1.5 °C
- ΔTm inhibitor 1 (MAP2K2): 2 °C
- ΔTm inhibitor 1 (TNIK): 1.2 °C
- ΔTm inhibitor 1 (PRKAA1): 1.3 °C
- ΔTm 1 (STK33): 3.1 °C
Compound: CC(=O)c1cccc(-c2cnc3ccc(NCC4CC4)nn23)c1 [compound 1, K00135]
